Source: patent publication US7700590B2, “Antibacterial agents” (University of New Orleans Research and Technology …, priority 2006, dated 2010)
In brackets after ≈: the same amount, converted by molar mass.

Columns and labels:
Assay type in all cases: cell-based
[1] = tested on: Gram positive bacteria, including S. aureus, E. faecalis and B. subtilis; test: Antibacterial activity, statements not tied to one strain; conditions: strain not singled out
Experimental: (§1) The antibacterial activities of the compounds synthesized as described above were evaluated by assay against several strains of Gram positive bacteria from the American Type Culture Collection (ATCC), Staphylococcus aureus 29213, Staphylococcus aureus 43300, Enterococcus faecalis 29212, and Bacillus subtilis PY79. The minimum inhibition concentration (MIC, μg/mL) of each compound synthesized was tested against four bacterial strains. The inhibition of bacterial growth was monitored using a standard colorimeter at 600 nm using a serial dilution at concentrations 238, 119, 59.5, 29.8, 14.9, 7.44, 3.72, 1.86, 0.93, 0.46 μg/ml. Chloramphenicol was tested as a control, and inhibits bacteria growth (MIC90) at 7.44, 7.44, 4.0, 2.0 μg/mL, respectively, for the four bacterial strains listed in Table 1. In Table 1, the MICs are reported as the concentrations at 50% inhibition of bacteria growth, and N stands for no inhibition.

[2] = tested on: Staphylococcus aureus 29213; test: Antibacterial growth inhibition assay (serial dilution, colorimeter at 600 nm), S. aureus 29213; set-up: key to MIC, concentration at 50% inhibition of bacteria growth, S. aureus 29213: N stands for no inhibition; conditions: for MIC, concentration at 50% inhibition of bacteria growth, S. aureus 29213: 50% growth inhibition, methicillin susceptible strain, serial dilution 238-0.46 μg/ml
Experimental: as §1

[3] = tested on: Enterococcus faecalis 29212; test: Antibacterial growth inhibition assay (serial dilution, colorimeter at 600 nm), E. faecalis 29212; conditions: for MIC, concentration at 50% inhibition of bacteria growth, E. faecalis 29212: 50% growth inhibition, vancomycin susceptible strain, serial dilution 238-0.46 μg/ml
Experimental: as §1

Bacillus subtilis PY79 = test: Antibacterial growth inhibition assay (serial dilution, colorimeter at 600 nm), B. subtilis PY79; set-up: key to MIC, concentration at 50% inhibition of bacteria growth, B. subtilis PY79: N stands for no inhibition; conditions: for MIC, concentration at 50% inhibition of bacteria growth, B. subtilis PY79: 50% growth inhibition, serial dilution 238-0.46 μg/ml
Experimental: as §1

[4] = tested on: Staphylococcus aureus 43300; test: Antibacterial growth inhibition assay (serial dilution, colorimeter at 600 nm), S. aureus 43300; set-up: key to MIC, concentration at 50% inhibition of bacteria growth, S. aureus 43300: N stands for no inhibition; conditions: for MIC, concentration at 50% inhibition of bacteria growth, S. aureus 43300: 50% growth inhibition, methicillin resistant strain, serial dilution 238-0.46 μg/ml
Experimental: as §1

| Compound | antibacterial activity in words [1] | MIC90 ([2]; Staphylococcus aureus, S. aureus 29213, read-out: MIC90 (control)) [µg/mL] | MIC90 ([3]; Enterococcus faecalis, E. faecalis 29212, read-out: MIC90 (control)) [µg/mL] | MIC90 (Bacillus subtilis PY79; Bacillus subtilis, B. subtilis PY79, read-out: MIC90 (control)) [µg/mL] | MIC90 ([4]; Staphylococcus aureus, S. aureus 43300, read-out: MIC90 (control)) [µg/mL] | MIC, concentration at 50% inhibition of bacteria growth, S. aureus 29213 [2] | MIC, concentration at 50% inhibition of bacteria growth, E. faecalis 29212 [3] [µg/mL] | MIC, concentration at 50% inhibition of bacteria growth, B. subtilis PY79 (Bacillus subtilis PY79) | MIC, concentration at 50% inhibition of bacteria growth, S. aureus 43300 [4] | antibacterial activity in words ([2]; S. aureus 29213) | antibacterial activity in words ([4]; S. aureus 43300) |
| --- | --- | --- | --- | --- | --- | --- | --- | --- | --- | --- | --- |
| CCN1CC[C@@H](CN(Cc2ccccc2)Cc2ccc(Cl)c(Cl)c2)OC1=O (stereo in doubt) [Compound A11, 6-{[benzyl-(3,4-dichloro-benzyl)-amino]-methyl}-3-ethyl-[1,3]oxazinan-2-one] | good activity | – | – | – | – | – | – | – | – | – | – |
| O=C(N[C@H](CO)[C@H](O)c1ccc([N+](=O)[O-])cc1)C(Cl)Cl [Chloramphenicol, reference compound] | – | 7.44 (≈ 23 µM) | 4 (≈ 12.4 µM) | 2 (≈ 6.19 µM) | 7.44 (≈ 23 µM) | – | – | – | – | – | – |
| CCN1CC[C@@H](CN(Cc2ccccc2)Cc2ccc([N+](=O)[O-])cc2)OC1=O [Compound A1] | – | – | – | – | – | N | 45.0 | N | N | – | – |
| CCN1CC[C@@H](CN(Cc2ccccc2)Cc2cccc([N+](=O)[O-])c2)OC1=O [Compound A2] | – | – | – | – | – | 90.0 µg/mL | 47.0 | 108 µg/mL | 22.0 µg/mL | – | – |
| CCN1CC[C@@H](CN(Cc2ccccc2)Cc2ccccc2[N+](=O)[O-])OC1=O [Compound A3] | – | – | – | – | – | 72.0 µg/mL | 43.0 | 100 µg/mL | 100 µg/mL | – | – |
| CCN1CC[C@@H](CN(Cc2ccccc2)Cc2ccc(C#N)cc2)OC1=O [Compound A4] | – | – | – | – | – | 180 µg/mL | 12.0 | 10.0 µg/mL | 59.5 µg/mL | – | – |
| CCN1CC[C@@H](CN(Cc2ccccc2)Cc2cccc(C#N)c2)OC1=O [Compound A5] | – | – | – | – | – | 238 µg/mL | 45.0 | 238 µg/mL | N | – | – |
| CCN1CC[C@@H](CN(Cc2ccccc2)Cc2ccccc2C#N)OC1=O [Compound A6] | – | – | – | – | – | 130 µg/mL | 33.0 | 160 µg/mL | 180 µg/mL | – | – |
| CCN1CC[C@@H](CN(Cc2ccccc2)Cc2ccc(F)cc2)OC1=O [Compound A7] | – | – | – | – | – | 64.0 µg/mL | 35.0 | 42.5 µg/mL | 47.0 µg/mL | – | – |
| CCN1CC[C@@H](CN(Cc2ccccc2)Cc2ccc(F)cc2F)OC1=O [Compound A8] | – | – | – | – | – | 45.0 µg/mL | 59.5 | 38.0 µg/mL | 50.5 µg/mL | – | – |
| CCN1CC[C@@H](CN(Cc2ccccc2)Cc2c(F)cccc2F)OC1=O [Compound A9] | – | – | – | – | – | 47.0 µg/mL | 59.5 | 77.0 µg/mL | 70.0 µg/mL | – | – |
| CCN1CC[C@@H](CN(Cc2ccccc2)Cc2cc(F)cc(F)c2)OC1=O [Compound A10] | – | – | – | – | – | 40.0 µg/mL | 37.0 | 43.0 µg/mL | 45.0 µg/mL | – | – |
| CCN1CC[C@@H](CN(Cc2ccccc2)Cc2ccc3ccccc3c2)OC1=O [Compound A12] | – | – | – | – | – | 15.0 µg/mL | 13.0 | 29.0 µg/mL | N | promising activity | no activity |
| CCN1CC[C@@H](CN(Cc2ccccc2)Cc2cccc(OC)c2)OC1=O [Compound A16] | – | – | – | – | – | 90.0 µg/mL | 80.5 | 95.0 µg/mL | 90.0 µg/mL | – | – |
| CN1CC[C@@H](CN(Cc2ccccc2)Cc2ccc([N+](=O)[O-])cc2)OC1=O [Compound B1] | – | – | – | – | – | 81.0 µg/mL | 119 | 98.0 µg/mL | N | – | – |
| CN1CC[C@@H](CN(Cc2ccccc2)Cc2cccc([N+](=O)[O-])c2)OC1=O [Compound B2] | – | – | – | – | – | 138 µg/mL | 119 | 238 µg/mL | N | – | – |
| CN1CC[C@@H](CN(Cc2ccccc2)Cc2ccccc2[N+](=O)[O-])OC1=O [Compound B3] | – | – | – | – | – | 179 µg/mL | 238 | 238 µg/mL | N | – | – |
| CN1CC[C@@H](CN(Cc2ccccc2)Cc2ccc(C#N)cc2)OC1=O [Compound B4] | – | – | – | – | – | 200 µg/mL | 238 | 238 µg/mL | N | – | – |
| CN1CC[C@@H](CN(Cc2ccccc2)Cc2cccc(C#N)c2)OC1=O [Compound B5] | – | – | – | – | – | 180 µg/mL | 7.40 | 180 µg/mL | 238 µg/mL | – | – |
| CN1CC[C@@H](CN(Cc2ccccc2)Cc2ccccc2C#N)OC1=O [Compound B6] | – | – | – | – | – | 166 µg/mL | 59.5 | 180 µg/mL | 180 µg/mL | – | – |
| CN1CC[C@@H](CN(Cc2ccccc2)Cc2ccc(F)cc2)OC1=O [Compound B7] | – | – | – | – | – | 87.1 µg/mL | 120 | 95.0 µg/mL | 119 µg/mL | – | – |
| CN1CC[C@@H](CN(Cc2ccccc2)Cc2ccc(F)cc2F)OC1=O [Compound B8] | – | – | – | – | – | 50.0 µg/mL | 59.5 | 55.0 µg/mL | 72.0 µg/mL | – | – |
